Earlier results in patent EP0859828B2, “DELIVERY SYSTEMS” (THE PROCTER & GAMBLE COMPANY, priority 1995, dated 1997).

Details: 25°C; cobalt pentaamine catalysts complexed with the named ligand

Molecule | base hydrolysis rates (kOH) [M⁻¹ s⁻¹]
CC(=O)O [acetate] | 0.00096
oxalate | 0.00025
